According to PubChem BioAssay (NCI):
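Values below derive from 48-hour exposures of cells grown in 96-well plates, with endpoints linearly interpolated between the two concentrations bracketing the appropriate inhibition level. TGI marks complete inhibition of growth.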

What was measured:
Assay in all cases: NCI anticancer screen, dose series, 48 h
K-562 leukemia = tested on: K-562 leukemia
NCI-H23 lung = tested on: NCI-H23 lung
TK-10 renal = tested on: TK-10 renal
M19-MEL melanoma = tested on: M19-MEL melanoma
HT29 colon = tested on: HT29 colon
OVCAR-5 ovarian = tested on: OVCAR-5 ovarian
ACHN renal = tested on: ACHN renal
HCT-116 colon = tested on: HCT-116 colon
OVCAR-8 ovarian = tested on: OVCAR-8 ovarian
UO-31 renal = tested on: UO-31 renal
HCT-15 colon = tested on: HCT-15 colon
OVCAR-3 ovarian = tested on: OVCAR-3 ovarian
SK-MEL-28 melanoma = tested on: SK-MEL-28 melanoma
SNB-78 CNS = tested on: SNB-78 CNS
OVCAR-4 ovarian = tested on: OVCAR-4 ovarian
EKVX NSCLC = tested on: EKVX NSCLC
SNB-75 CNS = tested on: SNB-75 CNS
SF-539 CNS = tested on: SF-539 CNS
IGROV1 ovarian = tested on: IGROV1 ovarian
SK-MEL-2 melanoma = tested on: SK-MEL-2 melanoma
SK-OV-3 ovarian = tested on: SK-OV-3 ovarian
SF-295 CNS = tested on: SF-295 CNS
UACC-62 melanoma = tested on: UACC-62 melanoma
CAKI-1 renal = tested on: CAKI-1 renal
M14 melanoma = tested on: M14 melanoma
SW-620 colon = tested on: SW-620 colon
A498 renal = tested on: A498 renal
NCI-H460 lung = tested on: NCI-H460 lung
LXFL 529 NSCLC = tested on: LXFL 529 NSCLC
NCI-H522 lung = tested on: NCI-H522 lung
RXF-631 renal = tested on: RXF-631 renal
MOLT-4 leukemia = tested on: MOLT-4 leukemia
HOP-62 NSCLC = tested on: HOP-62 NSCLC
HCC-2998 colon = tested on: HCC-2998 colon
XF 498 CNS = tested on: XF 498 CNS
LOX IMVI melanoma = tested on: LOX IMVI melanoma
RXF 393 renal = tested on: RXF 393 renal
786-0 renal = tested on: 786-0 renal
SR leukemia = tested on: SR leukemia
U251 CNS = tested on: U251 CNS
SF-268 CNS = tested on: SF-268 CNS
NCI-H226 lung = tested on: NCI-H226 lung
UACC-257 melanoma = tested on: UACC-257 melanoma
CCRF-CEM leukemia = tested on: CCRF-CEM leukemia
HOP-92 NSCLC = tested on: HOP-92 NSCLC
RPMI-8226 leukemia = tested on: RPMI-8226 leukemia
KM12 colon = tested on: KM12 colon
DMS 114 small cell lung = tested on: DMS 114 small cell lung
A549 NSCLC = tested on: A549 NSCLC
DLD-1 colon = tested on: DLD-1 colon
COLO 205 colon = tested on: COLO 205 colon
SN12C renal = tested on: SN12C renal
HL-60(TB) leukemia = tested on: HL-60(TB) leukemia
SK-MEL-5 melanoma = tested on: SK-MEL-5 melanoma
HOP-18 NSCLC = tested on: HOP-18 NSCLC
DMS 273 small cell lung = tested on: DMS 273 small cell lung
MALME-3M melanoma = tested on: MALME-3M melanoma
KM20L2 colon = tested on: KM20L2 colon

For `O=C1c2ccccc2C(=O)c2c1cc(S(=O)(=O)O)c(O)c2O`, the TGI (K-562 leukemia) was > 100 µM, the TGI (NCI-H23 lung) was > 100 µM and the TGI (TK-10 renal) was > 100 µM. The TGI (M19-MEL melanoma) was > 100 µM, the TGI (HT29 colon) was > 100 µM and the TGI (OVCAR-5 ovarian) was > 100 µM. For the same compound, the TGI (ACHN renal) was > 100 µM, the TGI (HCT-116 colon) was > 100 µM and the TGI (OVCAR-8 ovarian) was > 100 µM. For the same compound, the TGI (UO-31 renal) was > 100 µM, the TGI (HCT-15 colon) was > 100 µM and the TGI (OVCAR-3 ovarian) was > 100 µM. The TGI (SK-MEL-28 melanoma) was > 100 µM, the TGI (SNB-78 CNS) was > 100 µM and the TGI (OVCAR-4 ovarian) was > 100 µM. The TGI (EKVX NSCLC) was > 100 µM, the TGI (SNB-75 CNS) was > 100 µM and the TGI (SF-539 CNS) was > 100 µM. For the same compound, the TGI (IGROV1 ovarian) was > 100 µM, the TGI (SK-MEL-2 melanoma) was > 100 µM and the TGI (SK-OV-3 ovarian) was > 100 µM. The TGI (SF-295 CNS) was > 100 µM, the TGI (UACC-62 melanoma) was > 100 µM and the TGI (CAKI-1 renal) was > 100 µM. The TGI (M14 melanoma) was > 100 µM, the TGI (SW-620 colon) was > 100 µM and the TGI (A498 renal) was > 100 µM. The TGI (NCI-H460 lung) was > 100 µM, the TGI (LXFL 529 NSCLC) was > 100 µM and the TGI (NCI-H522 lung) was > 100 µM. The TGI (RXF-631 renal) was > 100 µM, the TGI (MOLT-4 leukemia) was > 100 µM and the TGI (HOP-62 NSCLC) was > 100 µM. For the same compound, the TGI (HCC-2998 colon) was > 100 µM, the TGI (XF 498 CNS) was 32.6 µM and the TGI (LOX IMVI melanoma) was > 100 µM. The TGI (RXF 393 renal) was > 100 µM, the TGI (786-0 renal) was > 100 µM and the TGI (SR leukemia) was > 100 µM. The TGI (U251 CNS) was > 100 µM, the TGI (SF-268 CNS) was > 100 µM and the TGI (NCI-H226 lung) was > 100 µM. The TGI (UACC-257 melanoma) was > 100 µM, the TGI (CCRF-CEM leukemia) was > 100 µM and the TGI (HOP-92 NSCLC) was > 100 µM. The TGI (RPMI-8226 leukemia) was > 100 µM, the TGI (KM12 colon) was > 100 µM and the TGI (DMS 114 small cell lung) was > 100 µM. The TGI (A549 NSCLC) was > 100 µM, the TGI (DLD-1 colon) was > 100 µM and the TGI (COLO 205 colon) was > 100 µM. For the same compound, the TGI (SN12C renal) was > 100 µM.

For `COC1(OC)CC2OC1C1N=NN(C(=O)OC(C)(C)C)C21` (centres undefined), the TGI (HL-60(TB) leukemia) was 81.6 µM, the TGI (K-562 leukemia) was > 100 µM and the TGI (NCI-H23 lung) was > 100 µM. The TGI (M19-MEL melanoma) was > 100 µM, the TGI (HT29 colon) was > 100 µM and the TGI (OVCAR-5 ovarian) was > 100 µM. The TGI (ACHN renal) was > 100 µM, the TGI (UO-31 renal) was > 100 µM and the TGI (HCT-15 colon) was > 100 µM. The TGI (OVCAR-3 ovarian) was > 100 µM, the TGI (SK-MEL-28 melanoma) was > 100 µM and the TGI (SNB-78 CNS) was > 100 µM. For the same compound, the TGI (OVCAR-4 ovarian) was > 100 µM, the TGI (SNB-75 CNS) was > 100 µM and the TGI (SF-539 CNS) was > 100 µM. For the same compound, the TGI (IGROV1 ovarian) was > 100 µM, the TGI (SK-MEL-5 melanoma) was > 100 µM and the TGI (SK-MEL-2 melanoma) was > 100 µM. For the same compound, the TGI (SK-OV-3 ovarian) was > 100 µM, the TGI (SF-295 CNS) was > 100 µM and the TGI (UACC-62 melanoma) was > 100 µM. The TGI (CAKI-1 renal) was > 100 µM, the TGI (M14 melanoma) was > 100 µM and the TGI (SW-620 colon) was > 100 µM. The TGI (A498 renal) was > 100 µM, the TGI (NCI-H460 lung) was > 100 µM and the TGI (LXFL 529 NSCLC) was > 100 µM. The TGI (HOP-18 NSCLC) was > 100 µM, the TGI (RXF-631 renal) was > 100 µM and the TGI (MOLT-4 leukemia) was > 100 µM. The TGI (HOP-62 NSCLC) was > 100 µM, the TGI (HCC-2998 colon) was > 100 µM and the TGI (XF 498 CNS) was > 100 µM. The TGI (LOX IMVI melanoma) was > 100 µM, the TGI (RXF 393 renal) was > 100 µM and the TGI (DMS 273 small cell lung) was > 100 µM. For the same compound, the TGI (786-0 renal) was > 100 µM, the TGI (U251 CNS) was > 100 µM and the TGI (SF-268 CNS) was > 100 µM. For the same compound, the TGI (NCI-H226 lung) was > 100 µM, the TGI (UACC-257 melanoma) was > 100 µM and the TGI (CCRF-CEM leukemia) was > 100 µM. The TGI (MALME-3M melanoma) was > 100 µM, the TGI (HOP-92 NSCLC) was > 100 µM and the TGI (KM20L2 colon) was > 100 µM. The TGI (RPMI-8226 leukemia) was > 100 µM, the TGI (KM12 colon) was > 100 µM and the TGI (DMS 114 small cell lung) was > 100 µM. The TGI (A549 NSCLC) was > 100 µM, the TGI (DLD-1 colon) was > 100 µM and the TGI (COLO 205 colon) was > 100 µM. The TGI (SN12C renal) was > 100 µM.
